According to US20260262643A1, “HERBICIDAL BENZOXAZINES” (FMC CORPORATION, priority 2022, published 2026):

Assays:
blackgrass [1] = assay: Test C preemergence; assay type: in vivo, Alopecurus myosuroides; settings: 0 to 100 scale (0 no effect, 100 complete control); for Blackgrass plant response rating: preemergence
Procedure, shortened: (§1)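 Greenhouse herbicide screen, 10-day duration. Test chemicals in solvent/surfactant blend were sprayed onto soil at sowing (pre) or onto 2–10 cm seedlings at one to two leaves (post); injury scored visually against controls, 0 no effect to 100 complete control.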

corn [2] = assay: Test C preemergence; assay type: in vivo, Zea mays; settings: 0 to 100 scale (0 no effect, 100 complete control); for Corn plant response rating: preemergence
Procedure, shortened: as §1

foxtail, giant [3] = assay: Test C preemergence; assay type: in vivo, Setaria faberi; settings: 0 to 100 scale (0 no effect, 100 complete control); for Foxtail, Giant plant response rating: preemergence
Procedure, shortened: as §1

goosegrass [4] = assay: Test C preemergence; assay type: in vivo, Eleusine indica; settings: 0 to 100 scale (0 no effect, 100 complete control); for Goosegrass plant response rating: preemergence
Description: (§2) Seeds of plant species selected from barnyardgrass (Echinochloa crusgalli), blackgrass (Alopecurus myosuroides), corn (Zea mays), foxtail, giant (giant foxtail, Setaria faberi), green foxtail (Setaria viridis), goosegrass (Eleusine indica), kochia (Bassia scoparia), oat, wild (wild oat, Avena fatua), pigweed, palmer (palmer amaranth, palmer pigweed, Amaranthus palmeri), Pigweed, Redroot (redroot pigweed, Amaranthus retroflexus), ragweed (common ragweed, Ambrosia artemisiifolia), ryegrass, Italian ([…] ryegrass, Lolium multiflorum), soybean (Glycine max), and wheat (Triticum aestivum) were planted into a blend of loam soil and sand and treated preemergence with a directed soil spray using test chemicals formulated in a non-phytotoxic solvent mixture which included a surfactant. At the same time, plants selected from these crops and weed species and also galium (catchweed bedstraw, Galium aparine) and horseweed (Erigeron canadensis) were planted in pots containing the same blend of loam soil and sand and treated with postemergence applications of test chemicals formulated in the same manner. Plants ranged in height from 2 to 10 cm and were in the one- to two-leaf stage for the postemergence treatment. Treated plants and untreated controls were maintained in a greenhouse for 10 days, after which time all treated plants were compared to untreated controls and visually evaluated for injury. Plant response ratings, summarized in Table C, are based on a 0 to 100 scale where 0 is no effect and 100 is complete control. A dash (-) response means no test result.

kochia [5] = assay: Test C preemergence; assay type: in vivo, Bassia scoparia; settings: 0 to 100 scale (0 no effect, 100 complete control)
Procedure, shortened: as §1

oat, wild [6] = assay: Test C preemergence; assay type: in vivo, Avena fatua; settings: 0 to 100 scale (0 no effect, 100 complete control); for Oat, Wild plant response rating: preemergence
Procedure, shortened: as §1

pigweed, palmer [7] = assay: Test C preemergence; assay type: in vivo, Amaranthus palmeri; settings: 0 to 100 scale (0 no effect, 100 complete control); for Pigweed, Palmer plant response rating: preemergence
Procedure, shortened: as §1

ragweed [8] = assay: Test C preemergence; assay type: in vivo, Ambrosia artemisiifolia; settings: 0 to 100 scale (0 no effect, 100 complete control); for Ragweed plant response rating: preemergence
Procedure, shortened: as §1

ryegrass, Italian [9] = assay: Test C preemergence; assay type: in vivo, Lolium multiflorum; settings: 0 to 100 scale (0 no effect, 100 complete control); for Ryegrass, Italian plant response rating: preemergence
Procedure, shortened: as §1

soybean [10] = assay: Test C preemergence; assay type: in vivo, Glycine max; settings: 0 to 100 scale (0 no effect, 100 complete control); for Soybean plant response rating: preemergence
Procedure, shortened: as §1

wheat [11] = assay: Test C preemergence; assay type: in vivo, Triticum aestivum; settings: 0 to 100 scale (0 no effect, 100 complete control); for Wheat plant response rating: preemergence
Procedure, shortened: as §1

blackgrass [12] = assay: Test C postemergence; assay type: in vivo, Alopecurus myosuroides; settings: 10 days
Procedure, shortened: as §1

corn [13] = assay: Test C postemergence; assay type: in vivo, Zea mays; settings: 10 days
Procedure, shortened: as §1

foxtail, giant [14] = assay: Test C postemergence; assay type: in vivo, Setaria faberi; settings: 10 days
Procedure, shortened: as §1

goosegrass [15] = assay: Test C postemergence; assay type: in vivo, Eleusine indica; settings: 10 days
Description: as §2

kochia [16] = assay: Test C postemergence; assay type: in vivo, Bassia scoparia; settings: 10 days
Procedure, shortened: as §1

oat, wild [17] = assay: Test C postemergence; assay type: in vivo, Avena fatua; settings: 10 days
Procedure, shortened: as §1

pigweed, palmer [18] = assay: Test C postemergence; assay type: in vivo, Amaranthus palmeri; settings: 10 days
Procedure, shortened: as §1

ragweed [19] = assay: Test C postemergence; assay type: in vivo, Ambrosia artemisiifolia; settings: 10 days
Procedure, shortened: as §1

ryegrass, Italian [20] = assay: Test C postemergence; assay type: in vivo, Lolium multiflorum; settings: 10 days
Procedure, shortened: as §1

soybean [21] = assay: Test C postemergence; assay type: in vivo, Glycine max; settings: 10 days
Procedure, shortened: as §1

wheat [22] = assay: Test C postemergence; assay type: in vivo, Triticum aestivum; settings: 10 days
Procedure, shortened: as §1

galium = assay: Test C postemergence; assay type: in vivo, Galium aparine; settings: 10 days
Procedure, shortened: as §1

horseweed = assay: Test C postemergence; assay type: in vivo, Erigeron canadensis; settings: 10 days
Procedure, shortened: as §1

barnyardgrass = assay: Test D flooded paddy test; assay type: in vivo, Echinochloa crus-galli; settings: 250 g ai/ha, applied to paddy water, visual rating after 13 to 14 days, scale 0 to 100 (0 no effect, 100 complete control)
Procedure, shortened: (§3)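 At the 2-leaf stage, floodwater 3 cm deep received the test compound; that depth persisted throughout. Plants scored visually 13 to 14 days on, 0 (no effect) to 100 (complete control), dash indicating no result.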

ducksalad = assay: Test D flooded paddy test; assay type: in vivo, Heteranthera limosa; settings: 250 g ai/ha, applied to paddy water, visual rating after 13 to 14 days, scale 0 to 100 (0 no effect, 100 complete control)
Procedure, shortened: as §3

rice = assay: Test D flooded paddy test; assay type: in vivo, Oryza sativa; settings: 250 g ai/ha, applied to paddy water, visual rating after 13 to 14 days, scale 0 to 100 (0 no effect, 100 complete control)
Procedure, shortened: as §3

sedge, umbrella = assay: Test D flooded paddy test; assay type: in vivo, Cyperus difformis; settings: 250 g ai/ha, applied to paddy water, visual rating after 13 to 14 days, scale 0 to 100 (0 no effect, 100 complete control)
Procedure, shortened: as §3

[23] = Preemergence, 500 g ai/ha, visual rating after 10 days
[24] = 125 g ai/ha, postemergence, 0 to 100 scale, 0 no effect, 100 complete control
[25] = Postemergence, 500 g ai/ha, visual 0 to 100 scale (0 no effect, 100 complete control)
[26] = 500 g ai/ha, postemergence, 0 to 100 scale (0 no effect, 100 complete control)

Cc1cccc2c1OC(C)CN2C(=O)c1cccc(-n2ncnc2C2CC2)c1 (racemic) [Compound 196]
Plant response rating, Blackgrass (blackgrass [1]; [23]): 0
Blackgrass plant response rating (blackgrass [1]; Test C, 125 g ai/ha): 0
Plant response rating, Corn (corn [2]; [23]): 20
Corn plant response rating (corn [2]; Test C, 125 g ai/ha): 0
Plant response rating, Foxtail, Giant (foxtail, giant [3]; [23]): 0
Foxtail, Giant plant response rating (foxtail, giant [3]; Test C, 125 g ai/ha): 0
Plant response rating, Goosegrass (goosegrass [4]; [23]): 0
Goosegrass plant response rating (goosegrass [4]; Test C, 125 g ai/ha): 0
Plant response rating, Kochia (kochia [5]; [23]): 0
Kochia plant response rating (kochia [5]; Test C, preemergence, 125 g ai/ha): 0
Plant response rating, Oat, Wild (oat, wild [6]; [23]): 0
Oat, Wild plant response rating (oat, wild [6]; Test C, 125 g ai/ha): 0
Plant response rating, Pigweed, Palmer (pigweed, palmer [7]; [23]): 0
Pigweed, Palmer plant response rating (pigweed, palmer [7]; Test C, 125 g ai/ha): 0
Plant response rating, Ragweed (ragweed [8]; [23]): 0
Ragweed plant response rating (ragweed [8]; Test C, 125 g ai/ha): 0
Plant response rating, Ryegrass, Italian (ryegrass, Italian [9]; [23]): 0
Ryegrass, Italian plant response rating (ryegrass, Italian [9]; Test C, 125 g ai/ha): 0
Plant response rating, Soybean (soybean [10]; [23]): 0
Soybean plant response rating (soybean [10]; Test C, 125 g ai/ha): 0
Plant response rating, Wheat (wheat [11]; [23]): 0
Wheat plant response rating (wheat [11]; Test C, 125 g ai/ha): 0
Plant response rating, Blackgrass (blackgrass [12]; [24]): 0
Plant response rating, Blackgrass (blackgrass [12]; [25]): 0
Plant response rating, Corn (corn [13]; [24]): 0
Plant response rating, Corn (corn [13]; [25]): 0
Plant response rating, Foxtail, Giant (foxtail, giant [14]; [24]): 0
Plant response rating, Foxtail, Giant (foxtail, giant [14]; [25]): 0
Plant response rating, Goosegrass (goosegrass [15]; [24]): 0
Plant response rating, Goosegrass (goosegrass [15]; [25]): 0
Plant response rating, Kochia (kochia [16]; [24]): 0
Plant response rating, Kochia (kochia [16]; [25]): 0
Plant response rating, Oat, Wild (oat, wild [17]; [24]): 0
Plant response rating, Oat, Wild (oat, wild [17]; [25]): 0
Plant response rating, Pigweed, Palmer (pigweed, palmer [18]; [24]): 30
Plant response rating, Pigweed, Palmer (pigweed, palmer [18]; [25]): 0
Plant response rating, Ragweed (ragweed [19]; [24]): 0
Plant response rating, Ragweed (ragweed [19]; [25]): 0
Plant response rating, Ryegrass, Italian (ryegrass, Italian [20]; [24]): 0
Plant response rating, Ryegrass, Italian (ryegrass, Italian [20]; [25]): 0
Plant response rating, Soybean (soybean [21]; [24]): 0
Plant response rating, Soybean (soybean [21]; [25]): 0
Plant response rating, Wheat (wheat [22]; [24]): 0
Plant response rating, Wheat (wheat [22]; [25]): 0
Plant response rating, Galium (galium; [24]): 0
Plant response rating, Galium (galium; [25]): 0
Plant response rating, Horseweed (horseweed; [24]): 0
Plant response rating, Horseweed (horseweed; [25]): 0
Plant response rating, Barnyardgrass (Flood) (barnyardgrass): 0
Plant response rating, Ducksalad (Flood) (ducksalad): 0
Plant response rating, Rice (Flood) (rice): 0
Plant response rating, Sedge, Umbrella (Flood) (sedge, umbrella): 0

CC1Oc2ccccc2N(C(=O)c2cccc(-n3cncn3)c2)C1C (stereo not drawn) [Compound 285]
Blackgrass plant response rating (blackgrass [1]; 500 g ai/ha): 0
Blackgrass plant response rating (blackgrass [1]; Test C, 125 g ai/ha): 0
Corn plant response rating (corn [2]; 500 g ai/ha): 0
Corn plant response rating (corn [2]; Test C, 125 g ai/ha): 0
Foxtail, Giant plant response rating (foxtail, giant [3]; 500 g ai/ha): 0
Foxtail, Giant plant response rating (foxtail, giant [3]; Test C, 125 g ai/ha): 0
Goosegrass plant response rating (goosegrass [4]; 500 g ai/ha): 0
Goosegrass plant response rating (goosegrass [4]; Test C, 125 g ai/ha): 0
Oat, Wild plant response rating (oat, wild [6]; 500 g ai/ha): 0
Oat, Wild plant response rating (oat, wild [6]; Test C, 125 g ai/ha): 0
Pigweed, Palmer plant response rating (pigweed, palmer [7]; 500 g ai/ha): 0
Pigweed, Palmer plant response rating (pigweed, palmer [7]; Test C, 125 g ai/ha): 0
Ragweed plant response rating (ragweed [8]; 500 g ai/ha): 0
Ragweed plant response rating (ragweed [8]; Test C, 125 g ai/ha): 0
Ryegrass, Italian plant response rating (ryegrass, Italian [9]; 500 g ai/ha): 30
Ryegrass, Italian plant response rating (ryegrass, Italian [9]; Test C, 125 g ai/ha): 20
Soybean plant response rating (soybean [10]; 500 g ai/ha): 0
Soybean plant response rating (soybean [10]; Test C, 125 g ai/ha): 0
Wheat plant response rating (wheat [11]; 500 g ai/ha): 0
Wheat plant response rating (wheat [11]; Test C, 125 g ai/ha): 0
pest or weed control at 125 g/ha (blackgrass [12]; Alopecurus myosuroides, post-emergence, 240 h, 125 g ai/ha, postemergence, 0 to 100 scale (0 no effect, 100 complete control), read-out: Plant response rating, Blackgrass): 0%
pest or weed control at 500 g/ha (blackgrass [12]; Alopecurus myosuroides, post-emergence, 240 h, 500 g ai/ha, postemergence, 0 to 100 scale (0 no effect, 100 complete control), read-out: Plant response rating, Blackgrass): 0%
Corn plant response rating (crop injury, 0 = no effect, 100 = complete kill) at 125 g/ha (corn [13]; Zea mays, post-emergence, 240 h, 125 g ai/ha, postemergence, 0 to 100 scale (0 no effect, 100 complete control)): 0%
Corn plant response rating (crop injury, 0 = no effect, 100 = complete kill) at 500 g/ha (corn [13]; Zea mays, post-emergence, 240 h, 500 g ai/ha, postemergence, 0 to 100 scale (0 no effect, 100 complete control)): 0%
Plant response rating, Foxtail, Giant (foxtail, giant [14]; [24]): 0
Plant response rating, Foxtail, Giant (foxtail, giant [14]; [26]): 0
Plant response rating, Goosegrass (goosegrass [15]; [24]): 0
Plant response rating, Goosegrass (goosegrass [15]; [26]): 0
Plant response rating, Kochia (kochia [16]; [24]): 0
Plant response rating, Kochia (kochia [16]; [26]): 0
Plant response rating, Oat, Wild (oat, wild [17]; [24]): 0
Plant response rating, Oat, Wild (oat, wild [17]; [26]): 0
Plant response rating, Pigweed, Palmer (pigweed, palmer [18]; [24]): 0
Plant response rating, Pigweed, Palmer (pigweed, palmer [18]; [26]): 0
Plant response rating, Ragweed (ragweed [19]; [24]): 0
Plant response rating, Ragweed (ragweed [19]; [26]): 0
Plant response rating, Ryegrass, Italian (ryegrass, Italian [20]; [24]): 0
Plant response rating, Ryegrass, Italian (ryegrass, Italian [20]; [26]): 0
Plant response rating, Soybean (soybean [21]; [24]): 0
Plant response rating, Soybean (soybean [21]; [26]): 10
Plant response rating, Wheat (wheat [22]; [24]): 0
Plant response rating, Wheat (wheat [22]; [26]): 0
Plant response rating, Galium (galium; [24]): 0
Plant response rating, Galium (galium; [26]): 30
Plant response rating, Horseweed (horseweed; [24]): 0
Plant response rating, Horseweed (horseweed; [26]): 0
Plant response rating, Barnyardgrass (Flood) (barnyardgrass): 0
Plant response rating, Ducksalad (Flood) (ducksalad): 0
Plant response rating, Rice (Flood) (rice): 0
Plant response rating, Sedge, Umbrella (Flood) (sedge, umbrella): 0
